Measurements published in US20220331327A1, “THE USE OF PARAXANTHINE TO IMPROVE PERFORMANCE IN VIDEO GAMERS” (priority 2021, published 2022).

Experiments:
Type in all cases: in vivo, human
healthy subject = assay: Arcade video game GALAGA, game score; details: 300 mg prior to playing GALAGA; one subject
Text: Each of the three game sessions were separated by a one-week washout period. In […], the player mans a lone […] bottom of the screen, which must prevent the […] forces from destroying all of mankind. The objective of each stage is to defeat all of the […] aliens, which will fly into formation from the top and sides of the screen.

[1] = test system: healthy men and women playing video games; assay: Stroop Color and Word Test during gaming; details: 200 mg daily
Description: The effectiveness of study-products (paraxanthine and placebo) was assessed by measuring in-game performance, cognition during gaming (Stroop Test) and mood status during gaming (Profile of Mood States (POMS)). The Stroop Color and Word Test (SCWT) was administered after 0, 3, and 6 six weeks of supplementation to assess cognitive performance during gaming throughout the study protocol. The Stroop Test was completed pre-dose, after 60 minutes of gaming and immediately after completing 120 minutes of video gaming during all study visits. The SCWT is a neuropsychological test that follows the procedures of Stroop (Stroop 1935). Briefly, the SCWT (with congruency) was administered for five continuous minutes via an online software application. One of four words (red, yellow, green, blue) appeared at random, until a selection was made, then a new word appeared at random. Subjects selected the response which matches the color of the ink of the randomly selected word (not the color that the word described). The number of correct answers served as the basis of a total Stroop score.

[2] = test system: healthy men and women playing video games; assay: Profile of Mood States (POMS) during gaming; details: 200 mg daily; for Tension, mean ± SD / Total Mood Disturbance (Tension + Depression + Anger + Fatigue + Confusion − Vigor), Mean ± SD / Vigor, mean ± SD / Tension, Mean of visit / Total Mood Disturbance, Mean of visit / Vigor, Mean of visit: n = 5; for Tension, Mean of visit / Total Mood Disturbance, Mean of visit / Vigor, Mean of visit: mean of 0, 1, 2 h; for Tension, Δ Baseline / Total Mood Disturbance, Δ Baseline / Vigor, Δ Baseline: versus baseline; for Tension, Δ PLA / Total Mood Disturbance, Δ PLA / Vigor, Δ PLA: versus placebo
Description: The effectiveness of study-products (paraxanthine and placebo) was assessed by measuring in-game performance, cognition during gaming (Stroop Test) and mood status during gaming (Profile of Mood States (POMS)). The POMS was completed pre-dose, after 60 minutes of gaming and immediately after completing 120 minutes of video gaming during all study visits. The POMS measured six subscales of mood, including tension-anxiety, depression-dejection, anger-hostility, vigor-activity, fatigue-inertia, and confusion-bewilderment. Subjects were asked to use a 5-point Likert scale (0=not at all, 1=a little, 2=moderately, 3=quite a bit, 4=extremely), to review a list of 65 words (feelings) and rank the degree to which they are experiencing that feeling at the moment. Since high vigor-activity scores reflect good moods or emotions, whereas low scores in the other subscales reflect a good mood or emotion, the total mood disturbance (TMD) score was computed by adding the five negative subscale scores (tension-anxiety, depression-dejection, anger-hostility, fatigue-inertia, and confusion-bewilderment) and subtracting the vigor-activity score. Higher numeric values of the TMD score indicate a greater degree of mood disturbance.

[3] = 3 weeks, listed as paraxanthine
[4] = 6 weeks, listed as paraxanthine

## Cn1c(=O)[nH]c2ncn(C)c2c1=O [Paraxanthine, paraxanthine]
Healthy subject
  average score over 5 games: 118,702
  change of average score compared to placebo: +79.4%
  change of personal best compared to placebo: +86.6%
  personal best (high score) of the 5 games: 161,070
[1]; 3 weeks, after one hour of gaming
  increase in cognitive performance (Stroop test score) compared to baseline: 39%
[1]; 3 weeks, after two hours of gaming
  increase in cognitive performance (Stroop test score) compared to baseline: 89%
[1]; 3 weeks, pre-gaming
  increase in cognitive performance (Stroop test score) compared to baseline: 25%
[1]; 6 weeks, after one hour of gaming
  increase in cognitive performance (Stroop test score) compared to baseline: 89%
[1]; 6 weeks, after two hours of gaming
  increase in cognitive performance (Stroop test score) compared to baseline: 119%
[1]; 6 weeks, pre-gaming
  increase in cognitive performance (Stroop test score) compared to baseline: 25%
[1]; even after 6 weeks
  habituation: No habituation was observed
[2]; 3 weeks, 0 h
  Tension, mean ± SD: 4.0 ± 2.8
  Total Mood Disturbance (Tension + Depression + Anger + Fatigue + Confusion − Vigor), Mean ± SD: −6.2 ± 16.6
  Vigor, mean ± SD: 20.4 ± 6.8
[2]; 3 weeks, 1 h
  Tension, mean ± SD: 2.0 ± 1.2
  Total Mood Disturbance (Tension + Depression + Anger + Fatigue + Confusion − Vigor), Mean ± SD: −6.8 ± 13.3
  Vigor, mean ± SD: 18.0 ± 10.0
[2]; 3 weeks, 2 h
  Tension, mean ± SD: 2.4 ± 1.3
  Total Mood Disturbance (Tension + Depression + Anger + Fatigue + Confusion − Vigor), Mean ± SD: −6.4 ± 15.8
  Vigor, mean ± SD: 16.4 ± 10.0
[2]; 3 weeks
  Tension, Mean of visit: 2.8
  Total Mood Disturbance, Mean of visit: −6.5
  Vigor, Mean of visit: 18.3
  Tension, Δ Baseline: −39.1%
  Total Mood Disturbance, Δ Baseline: −282%
  Vigor, Δ Baseline: +10.2%
  Tension, Δ PLA: −51.7%
  Total Mood Disturbance, Δ PLA: −166%
  Vigor, Δ PLA: +28.9%
[2]; 6 weeks, 0 h
  Tension, mean ± SD: 2.6 ± 1.8
  Total Mood Disturbance (Tension + Depression + Anger + Fatigue + Confusion − Vigor), Mean ± SD: −8.2 ± 13.8
  Vigor, mean ± SD: 18.6 ± 8.6
[2]; 6 weeks, 1 h
  Tension, mean ± SD: 2.0 ± 1.0
  Total Mood Disturbance (Tension + Depression + Anger + Fatigue + Confusion − Vigor), Mean ± SD: −11.2 ± 12.4
  Vigor, mean ± SD: 18.2 ± 9.2
[2]; 6 weeks, 2 h
  Tension, mean ± SD: 2.2 ± 1.3
  Total Mood Disturbance (Tension + Depression + Anger + Fatigue + Confusion − Vigor), Mean ± SD: −8.8 ± 13.4
  Vigor, mean ± SD: 17.2 ± 9.8
[2]; 6 weeks
  Tension, Mean of visit: 2.3
  Total Mood Disturbance, Mean of visit: −9.4
  Vigor, Mean of visit: 18.0
  Tension, Δ Baseline: −50.0%
  Total Mood Disturbance, Δ Baseline: −453%
  Vigor, Δ Baseline: +8.4%
  Tension, Δ PLA: −61.0%
  Total Mood Disturbance, Δ PLA: −189%
  Vigor, Δ PLA: +59.3%
[2]; Baseline visit, 0 h
  Tension, mean ± SD: 5.4 ± 2.2
  Total Mood Disturbance (Tension + Depression + Anger + Fatigue + Confusion − Vigor), Mean ± SD: −2.2 ± 10.5
  Vigor, mean ± SD: 19.2 ± 5.3
[2]; Baseline visit, 1 h
  Tension, mean ± SD: 5.6 ± 5.4
  Total Mood Disturbance (Tension + Depression + Anger + Fatigue + Confusion − Vigor), Mean ± SD: −2.6 ± 18.6
  Vigor, mean ± SD: 17.4 ± 6.5
[2]; Baseline visit, 2 h
  Tension, mean ± SD: 2.8 ± 1.3
  Total Mood Disturbance (Tension + Depression + Anger + Fatigue + Confusion − Vigor), Mean ± SD: −0.4 ± 16.1
  Vigor, mean ± SD: 13.2 ± 6.4
[2]; Baseline visit
  Tension, Mean of visit: 4.6
  Total Mood Disturbance, Mean of visit: −1.7
  Vigor, Mean of visit: 16.6
[2]; [3]
  Vigor, Δ Baseline: 10.2%
  Vigor, Δ PLA: 28.9%
[2]; [4]
  Vigor, Δ Baseline: 8.4%
  Vigor, Δ PLA: 59.3%
[2]; after 3 and 6 weeks
  worsening of total mood disturbance during continued gaming: an effect that was not observed in the paraxanthine group
[2]; after 3 and 6 weeks, compared to baseline and to placebo
  total mood disturbance, effect in words: improved total mood disturbance
[2]; after 3 weeks
  decrease of feelings of tension-anxiety compared to baseline: 39.1%
  decrease of feelings of tension-anxiety compared to placebo: 51.7%
[2]; after 6 weeks
  decrease of feelings of tension-anxiety compared to baseline: 50%
  decrease of feelings of tension-anxiety compared to placebo: 61.0%
[2]; the longer the subject played
  course of tension with duration of play: tension decreased in the paraxanthine group the longer the subject played
